# Experimental data from US20260345621A1, “GABAA RECEPTOR MODULATORS AND USES THEREOF” (Engrail Therapeutics, Inc., priority 2022, published 2026).
# “Also recorded” adds a separate entry of the source.
# Experiments:
# [1] = phase II trial terminated; long term dosing studies; cited from earlier work
# [2] = tested on: anxiety (elevated plus maze); assay: Elevated plus maze (EPM); conditions: oral
# sleep stages = assay: Sleep-stage analysis in wirelessly implanted rats; conditions: Lorazepam 1 mg/kg IP
# EEG spectral bands = assay: Pharmaco-EEG spectral analysis in wirelessly implanted rats
# [3] = Frontal-Parietal cortex, Quiet Wake
compound,measurement,setting,value
"CCn1ncnc1COc1nn2c(-c3ccccc3F)nnc2cc1C(C)(C)C [7-(1,1-dimethylethyl)-6-(2-ethyl-2H-1,2,4-triazol-3-ylmethoxy)-3-(2-fluorophenyl)-1,2,4-triazolo[4,3-b]pyridazine]",toxicity,[1],terminated due to toxicity in long term dosing studies
chlordiazepoxide [reference compound],effect compared with reference anxiolytic chlordiazepoxide,[2],equivalent
"O=C1Nc2ccc(Cl)cc2C(c2ccccc2Cl)=NC1O (centres unmarked) [Lorazepam, reference compound]",NREM onset,sleep stages; Compound 1 1 mg/kg PO,decreased the latency to NREM onset; also recorded: quicker time to Non-REM onset sleep than Compound 1
same,Active Wake,sleep stages; Compound 1 PO,decreased Active Wake
same,NREM,sleep stages; Compound 1 PO,increased NREM
same,EEG spectral power change,"EEG spectral bands; Frontal-Frontal cortex, Active and Quiet Wake","increased beta, low and high gamma"
same,EEG spectral power change,"EEG spectral bands; Frontal-Frontal cortex, NREM","decreased theta, alpha, and beta, but increased low gamma"
same,duration of EEG effects,"EEG spectral bands; Frontal-Frontal cortex, NREM, Compound 1 high dose PO, Lorazepam 1 mg/kg IP",9 h
same,EEG spectral power change,"EEG spectral bands; Frontal-Frontal cortex, REM",increased beta
same,duration of increase in low and high gamma,"EEG spectral bands; Frontal-Parietal cortex, NREM",only lasting to two hours post dose
same,EEG spectral power change,EEG spectral bands; [3],"decreased theta, increased beta and low and high gamma"
same,duration of EEG effects,EEG spectral bands; [3],did not last past four hours post dose
same,EEG spectral power change,"EEG spectral bands; Frontal-Parietal cortex, REM","increased theta, alpha, beta, and low gamma"
same,EEG spectral power change,"EEG spectral bands; summary, Quiet Wake","increased low & high gamma, decreased delta"
